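Dose response: 5 concentrations. Exposure: 48 h. Format: 96-well plates. Endpoint: linear interpolation; highest concentration if not reached. GI50: concentration for 50% inhibition of growth. TGI marks complete inhibition of growth.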

From PubChem BioAssay (NCI) come the findings set out here.

Test systems include RXF 393 renal; HOP-62 NSCLC; MOLT-4 leukemia; ACHN renal; HL-60(TB) leukemia; TK-10 renal; CCRF-CEM leukemia; SF-295 CNS; HOP-92 NSCLC; RPMI-8226 leukemia; K-562 leukemia; U251 CNS; MALME-3M melanoma; HT29 colon.
Experiment in all cases: NCI anticancer screen, dose series, 48 h

With `CC#CCOC(=O)c1ccccc1OC(C)=O`, the TGI in the assay with RXF 393 renal, with HOP-62 NSCLC, in the assay on MOLT-4 leukemia, in the assay with ACHN renal, in the assay with HL-60(TB) leukemia and in the assay with TK-10 renal was above 100 µM in each case. For the same compound, the TGI in the assay with CCRF-CEM leukemia, in the assay on SF-295 CNS, in the assay with HOP-92 NSCLC, in the assay with RPMI-8226 leukemia, in the assay with K-562 leukemia and with U251 CNS was above 100 µM throughout.
For the compound `O=c1cc(-c2cccc3ccccc23)[nH]c2ncccc12`, the GI50 in the assay on RXF 393 renal is 11.9 µM; in the assay with MOLT-4 leukemia it was 0.0449 µM; in the assay with ACHN renal, 0.0425 µM; with CCRF-CEM leukemia, 0.0201 µM; with HOP-92 NSCLC it was 0.773 µM; in the assay on U251 CNS it was 0.0103 µM. For the same compound, the TGI in the assay on HOP-62 NSCLC is above 100 µM; in the assay on MALME-3M melanoma, 0.0462 µM; with MOLT-4 leukemia, above 100 µM; in the assay with ACHN renal, above 100 µM; with HT29 colon it was 0.0608 µM; with HL-60(TB) leukemia it was 0.0315 µM. For the same compound, the TGI in the assay with CCRF-CEM leukemia is above 100 µM; in the assay with SF-295 CNS, above 100 µM; in the assay with HOP-92 NSCLC it was 70.1 µM; with RPMI-8226 leukemia, above 100 µM; in the assay with K-562 leukemia, above 100 µM; with U251 CNS it was above 100 µM.
Regarding `CN=C1CC2c3cc(OC)c(OC)cc3CCN2C2=C1C(=O)CC(C)(C)C2` (centres undefined), the TGI with RXF 393 renal, in the assay with MALME-3M melanoma, with MOLT-4 leukemia, with ACHN renal, in the assay with HT29 colon and with HL-60(TB) leukemia was above 100 µM each time. In addition, the TGI in the assay with TK-10 renal, with CCRF-CEM leukemia, with SF-295 CNS, in the assay on HOP-92 NSCLC and in the assay with U251 CNS was above 100 µM throughout.
Turning to `COC(=O)/C=C(\C)CC(O)/C=C(\C)CCC=C(C)C` (centres undefined), the TGI is above 100 µM in the assay on RXF 393 renal; above 100 µM in the assay with HOP-62 NSCLC; above 100 µM in the assay on MALME-3M melanoma; 55.3 µM in the assay on MOLT-4 leukemia; above 100 µM in the assay on ACHN renal; 59.2 µM in the assay on HT29 colon. Besides, the TGI in the assay on HL-60(TB) leukemia was 46.2 µM; in the assay with TK-10 renal it was above 100 µM; with CCRF-CEM leukemia, 94.1 µM; in the assay on SF-295 CNS, above 100 µM; in the assay on HOP-92 NSCLC, above 100 µM; in the assay with K-562 leukemia it was above 100 µM. For the same compound, in the assay with U251 CNS, the TGI is above 100 µM.
`N#Cc1c(N)nc2n[nH]c(N)c2c1-c1ccc(Cl)cc1`: the TGI was 7.26 µM in the assay with RXF 393 renal; 71.5 µM with HOP-62 NSCLC; 8.69 µM in the assay with MALME-3M melanoma; above 100 µM in the assay on MOLT-4 leukemia; 9.69 µM in the assay on ACHN renal; above 58.6 µM in the assay with HT29 colon. Moreover, the TGI is above 100 µM with HL-60(TB) leukemia; above 100 µM in the assay with CCRF-CEM leukemia; 42.7 µM in the assay on SF-295 CNS; 6.14 µM in the assay with HOP-92 NSCLC; above 100 µM in the assay on RPMI-8226 leukemia; above 100 µM in the assay on K-562 leukemia. In addition, the TGI in the assay with U251 CNS was above 55 µM.
Consider `O=C(/C=C/c1cc2ccccc2o1)N1CCN(c2ccccn2)CC1`, for which the TGI in the assay with RXF 393 renal, in the assay with HOP-62 NSCLC, in the assay with MALME-3M melanoma, with MOLT-4 leukemia, in the assay with HT29 colon and in the assay with HL-60(TB) leukemia was above 100 µM each time. Further, the TGI in the assay with TK-10 renal, with CCRF-CEM leukemia, in the assay on SF-295 CNS, in the assay on HOP-92 NSCLC, with RPMI-8226 leukemia and in the assay on K-562 leukemia was above 100 µM in each case. The compound further came in with a TGI in the assay on U251 CNS above 100 µM.
With `Cc1ccc(-n2c(N)c(C#N)c3[nH]nc(N)c3c2=O)cc1`, the TGI in the assay with RXF 393 renal, in the assay with HOP-62 NSCLC, in the assay with MOLT-4 leukemia, in the assay on ACHN renal, with HT29 colon and in the assay on HL-60(TB) leukemia was above 100 µM each time. In addition, the TGI in the assay with TK-10 renal, in the assay on CCRF-CEM leukemia, in the assay with SF-295 CNS, in the assay with HOP-92 NSCLC, in the assay with RPMI-8226 leukemia and in the assay with K-562 leukemia was above 100 µM in each case. This compound also yielded a TGI in the assay with U251 CNS above 100 µM.
Take `COc1ccc(C(OCC2OC(n3cc(C)c(=O)[nH]c3=O)CC2n2cc(Cn3cc(Cl)c(=O)[nH]c3=O)nn2)(c2ccccc2)c2ccccc2)cc1` (centres undefined): the TGI in the assay with RXF 393 renal, in the assay on HOP-62 NSCLC, in the assay on MALME-3M melanoma, with MOLT-4 leukemia, with ACHN renal and in the assay with HT29 colon was above 100 µM each time. The TGI with HL-60(TB) leukemia was 6.99 µM; in the assay on TK-10 renal it was above 100 µM; with SF-295 CNS it was above 100 µM; with HOP-92 NSCLC, above 100 µM; in the assay on RPMI-8226 leukemia, above 100 µM; with U251 CNS it was above 100 µM.
For the compound `O=C1/C(=C/c2ccccc2S)N=C(c2ccccc2)N1c1nc2c(Cl)cc(Cl)cc2s1`, the TGI in the assay with RXF 393 renal was 58 µM; in the assay on HOP-62 NSCLC, 47.2 µM; in the assay on MOLT-4 leukemia, 30.2 µM; in the assay with ACHN renal, 58 µM; in the assay with HT29 colon, 40.1 µM; in the assay on HL-60(TB) leukemia it was 42.6 µM. In addition, the TGI with TK-10 renal was above 100 µM; with CCRF-CEM leukemia, 13.7 µM; with SF-295 CNS, 72.4 µM; in the assay on HOP-92 NSCLC, 49.6 µM; in the assay on RPMI-8226 leukemia it was 54.1 µM; with K-562 leukemia, 81.5 µM. In the assay with U251 CNS, this compound displayed a TGI of 54.2 µM.
With `CC(=O)c1[nH]c(NCc2ccccc2)c(C(=S)Nc2ccccc2)c1N`, the TGI is 35.6 µM in the assay with RXF 393 renal; 40 µM in the assay with HOP-62 NSCLC; 38.6 µM with MALME-3M melanoma; above 100 µM in the assay on MOLT-4 leukemia; 85.2 µM with ACHN renal; above 100 µM in the assay with HT29 colon. Further, the TGI was 35.3 µM in the assay on HL-60(TB) leukemia; 63.8 µM with TK-10 renal; above 100 µM in the assay with CCRF-CEM leukemia; 66 µM with SF-295 CNS; 59.3 µM with HOP-92 NSCLC; 76.1 µM in the assay with K-562 leukemia. The TGI in the assay on U251 CNS was 32.7 µM.
Turning to `Cn1c(=O)n(C2(C)C[Se]C2)c2ccccc21`, the TGI in the assay on RXF 393 renal, in the assay with HOP-62 NSCLC, in the assay with MOLT-4 leukemia, in the assay with ACHN renal, in the assay on HT29 colon and with HL-60(TB) leukemia was above 100 µM each time. Further, the TGI with TK-10 renal, in the assay on CCRF-CEM leukemia, in the assay on SF-295 CNS, in the assay with HOP-92 NSCLC, with RPMI-8226 leukemia and in the assay with K-562 leukemia was above 100 µM each time. This compound returned a TGI in the assay on U251 CNS above 100 µM.
